Measured values taken from patent US8304422B2, “Compositions and methods for inhibition of the JAK pathway” (Rigel Pharmaceuticals, Inc., priority 2007, dated 2012).

Test system: BaF3 V617F cells; UKE-1
Experiment: Proliferation Assay (Cell Titer-Glo; Example 7)
Assay type: cell-based
Settings: proliferation 72 hours, inhibit JAK2 activity, cell line (BaF3 V617F or UKE-1) not stated
Outline: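 Proliferation IC50s reflect 72 h compound exposure at 37 °C, read by Cell Titer-Glo luminescence. Compound was serially diluted 3-fold from a 5 mM DMSO stock and added as a 2× solution; BaF3 V617F cells were grown in RPMI/10% FBS, UKE-1 in Iscove's DMEM with FBS, equine serum and hydrocortisone.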

Q: For “5-Chloro-N4-[4-(N-cyclopropylsulfonylamino)methylphenyl]-N2-[4-[N-(methansulfonyl)piperizin-4-ylphenyl]-2,4-pyrimidinediamine [II-207]”, which IC50 is on record?
A: Its IC50 is 0.384 µM.

Q: Which IC50 does the source give for `CCNS(=O)(=O)NCc1cccc(Nc2nc(Nc3ccc(N4CCN(C)CC4)c(C)c3)ncc2C)c1` [II-136, N4-[3-((Ethylamino)sulfonylamino)methylphenyl]-5-methyl-N2-[3-methyl-4-(4-methyl-1-piperazinyl)phenyl]-2,4-pyrimidinediamine] here?
A: Its IC50 is 2.14 µM.

Q: With “N2-[3,4-Dimethyl-4-(2-(4-morpholinyl)ethoxy)phenyl]-N4-[4-((N-cyclopropylamino)sulfonylamino)methylphenyl]-5-methyl-2,4-pyrimidinediamine [II-174]” as the compound, how does the IC50 read?
A: Its IC50 is 0.127 µM.

Q: For `CN1CCN(c2ccc(Nc3ncc(Cl)c(Nc4ccc(CNS(=O)(=O)NC5CC5)cc4)n3)cn2)CC1` [II-169, 5-Chloro-N4-[4-((N-cyclopropylamino)sulfonylamino)methylphenyl]-N2-[6-(4-methyl-1-piperazinyl)-3-pyridinyl]-2,4-pyrimidinediamine], which IC50 is on record?
A: The IC50 was 0.348 µM.

Q: `CN1CCC(c2ccc(Nc3ncc(Cl)c(Nc4cccc(S(=O)(=O)NC(C)(C)C)c4)n3)cc2)CC1` [I-17, 5-Chloro-N4-[3-(N-tert-butylsulfonyl)phenyl]-N2-[4-(N-methylpiperidin-4-yl)phenyl]-2,4-pyrimidinediamine] was tested. Which IC50 did it give?
A: The IC50 was 0.99 µM.

Q: With `COc1c(C)cc(Nc2ncc(Cl)c(Nc3ccc(CNS(N)(=O)=O)cc3)n2)cc1C` [II-146, N4-[4-(Aminosulfonylamino)methylphenyl]-5-chloro-N2-(3,5-dimethyl-4-methoxyphenyl)-2,4-pyrimidinediamine] as the compound, how does the IC50 read?
A: The IC50 was 0.225 µM.

Q: Which IC50 does the source give for “5-Methyl-N4-[4-(N-cyclopropylsulfonylamino)methylphenyl]-N2-[2,4-dimethyl-5-chlorophenyl]-2,4-pyrimidinediamine [II-212]” here?
A: Its IC50 is 2.2 µM.

Q: “5-Chloro-N4-[3,4-dihydro-1,1-dioxide-2H-1,2-benzothiazin-7-yl]-N2-[5-methyl-4-(N-methylpiperizin-4-yl)pyridine-3-yl]-2,4-pyrimidinediamine [VII-4]” was tested. Which IC50 did it give?
A: Its IC50 is 0.558 µM.

Q: Which IC50 does the source give for `COc1cc(C)c(Nc2ncc(C)c(Nc3ccc(CCNS(=O)(=O)C4CC4)cc3)n2)c(C)c1` [II-62] here?
A: Its IC50 is 0.438 µM.

Q: With `Cc1cnc(Nc2ccc(N3CCN(C)CC3)cc2)nc1Nc1ccc(CNS(=O)(=O)NC2CC2)cc1` [II-171, N4-[4-((N-Cyclopropylamino)sulfonylamino)methylphenyl]-5-methyl-N2-[4-(4-methyl-1-piperazinyl)phenyl]-2,4-pyrimidinediamine] as the compound, how does the IC50 read?
A: Its IC50 is 0.735 µM.

Q: “5-Chloro-N4-[4-(N-Cyclopropylsulfonylamino)methylphenyl]-N2-[3-methyl-4-[(1S,4S)-5-methyl-2,5-diazabicyclo[2.2.1]hept-2-yl]phenyl]-2,4-pyrimidinediamine [II-185]” was tested. Which IC50 did it give?
A: Its IC50 is 0.11 µM.

Q: How did the IC50 turn out when “N4-[4-(N-cyclopropylsulfonylamino)ethylphenyl)]-5-methyl-N2-[4-(6-methoxy-2-methyl)methoxyphenyl]-2,4-pyrimidinediamine [II-66]” was run?
A: The IC50 was 0.467 µM.

Q: Which IC50 does the source give for `CCNS(=O)(=O)NCc1ccc(Nc2nc(Nc3cc(Cl)c(OC)c(OC)c3)ncc2Cl)cc1` [II-113, 5-Chloro-N2-(3-chloro-4,5-dimethoxyphenyl)-N4-[(4-(ethylamino)sulfonylamino)methylphenyl]-2,4-pyrimidinediamine] here?
A: The IC50 was 0.286 µM.

Q: With `CCc1cnc(Nc2cc(Cl)c(OC)c(Cl)c2)nc1Nc1ccc(CNS(=O)(=O)C2CC2)cc1` [II-84, N4-[4-(N-Cyclopropylsulfonylamino)methylphenyl]-N2-(3,5-dichloro-4-methoxyphenyl)-5-ethyl-2,4-pyrimidinediamine] as the compound, how does the IC50 read?
A: The IC50 was 38.3 µM.

Q: `COc1cc(Nc2ncc(Cl)c(Nc3ccc(CNS(=O)(=O)NC4CC4)cc3)n2)cc(C)c1OC` [II-158, 5-Chloro-N4-[4-((N-cyclopropylamino)sulfonylamino)methylphenyl]-N2-(3,4-dimethoxy-5-methylphenyl)-2,4-pyrimidinediamine] was tested. Which IC50 did it give?
A: The IC50 was 0.158 µM.

Q: “5-Chloro-N4-[3,4-dihydro-1,1-dioxide-2H-1,2-benzothiazin-7-yl]-N2-[4-(N-methylpiperizin-4-yl)phenyl]-2,4-pyrimidinediamine [VII-5]” was tested. Which IC50 did it give?
A: Its IC50 is 13.2 µM.

Q: `COc1cc(Nc2ncc(Cl)c(Nc3ccc(CNS(=O)(=O)N(C)C)cc3)n2)cc(C)c1OC` [II-91, 5-Chloro-N2-(3,4-dimethoxy-5-methylphenyl)-N4-[(4-(dimethylamino)sulfonylamino)methylphenyl]-2,4-pyrimidinediamine] was tested. Which IC50 did it give?
A: The IC50 was 0.142 µM.

Q: How did the IC50 turn out when `Cc1cc(CNS(=O)(=O)C2CC2)cc(Nc2nc(Nc3ccc(N4CCN(C5CC6CCC5C6)CC4)cc3)ncc2C)c1` (centres unmarked) [II-77, N-(3-(2-(4-(4-(bicyclo[2.2.1]heptan-2-yl)piperazin-1-yl)phenylamino)-5-methylpyrimidin-4-ylamino)-5-methylbenzyl)cyclopropanesulfonamide] was run?
A: Its IC50 is 1.32 µM.

Q: `COc1cc(Nc2ncc(Cl)c(Nc3ccc(CNS(=O)(=O)C4CC4)cc3)n2)cc(OC)c1OC` [II-186, 5-Chloro-N4-[4-(N-cyclopropylsulfonylaminomethyl)phenyl]-N2-[3,4,5-trimethoxyphenyl]-2,4-pyrimidinediamine] was tested. Which IC50 did it give?
A: The IC50 was 0.128 µM.

Q: Which IC50 does the source give for `Cc1cnc(Nc2ccc(N3CCN(C)CC3)cc2)nc1Nc1ccc2c(c1)C(NS(=O)(=O)C1CC1)CC2` (racemic) [V-4, (+/−)-N4-[1-(Cyclopropylsulfonylamino)indan-6-yl]-5-methyl-N2-[4-(4-methyl-1-piperazinyl)phenyl]-2,4-pyrimidinediamine] here?
A: The IC50 was 0.686 µM.

Q: How did the IC50 turn out when `CCNS(=O)(=O)NCc1ccc(Nc2nc(Nc3ccc(N4CCN(C)CC4)c(C)c3)ncc2Cl)c(C)c1` [II-145, 5-Chloro-N4-[2-methyl-4-(ethylaminosulfonylamino)methylphenyl]-N2-[3-methyl-4-(4-methyl-1-piperazinyl)phenyl]-2,4-pyrimidinediamine] was run?
A: The IC50 was 3.98 µM.

Q: How did the IC50 turn out when `O=S(=O)(NCCc1ccc(Nc2nc(Nc3ccc(-c4ccccc4)cc3)ncc2Cl)cc1)C1CC1` [II-58, 5-Chloro-N4[4-(N-cyclopropylsulfonylamino)ethylphenyl]-N2-[4-biphenyl]-2,4-pyrimidinediamine] was run?
A: Its IC50 is 16.2 µM.

Q: `O=S(=O)(NCc1ccc(Nc2nc(Nc3ccc(N4CCN(C5CC6CCC5C6)CC4)c(F)c3)ncc2Cl)cc1)C1CC1` (centres unmarked) [II-79, N-(4-(2-(4-(4-(bicyclo[2.2.1]heptan-2-yl)piperazin-1-yl)-3-fluorophenylamino)-5-chloropyrimidin-4-ylamino)benzyl)cyclopropanesulfonamide] was tested. Which IC50 did it give?
A: The IC50 was 3.16 µM.

Q: How did the IC50 turn out when “5-Chloro-N4-[4-(N-cyclopropylsulfonylamino)methylphenyl]-N2-[3-methyl-4-(N-methylpiperizin-4-yl)phenyl]-2,4-pyrimidinediamine [II-203]” was run?
A: The IC50 was 1.5 µM.

Q: How did the IC50 turn out when `Cc1cnc(Nc2cc(C3CC3)n[nH]2)nc1Nc1ccc(CNS(=O)(=O)C2CC2)cc1` [VIII-11, 5-Methyl-N4-[4-(N-cyclopropylsulfonylamino)methylphenyl]-N2-[5-cyclopropylpyrazol-3-yl)-2,4-pyrimidinediamine] was run?
A: The IC50 was 0.388 µM.

Q: How did the IC50 turn out when `Cc1cc(Nc2ncc(C)c(Nc3ccc(CNS(=O)(=O)C4CC4)cc3)n2)ccc1N1CCN(C)CC1` [II-202, 5-Methyl-N4-[4-(N-cyclopropylsulfonylamino)methylphenyl]-N2-[3-methyl-4-(N-methylpiperizin-4-yl)phenyl]-2,4-pyrimidinediamine] was run?
A: Its IC50 is 1.44 µM.

Q: Which IC50 does the source give for `CCOc1c(C)cc(Nc2ncc(Cl)c(Nc3ccc(CNS(=O)(=O)C4CC4)cc3)n2)cc1C` [II-211, 5-Chloro-N4-[4-(N-cyclopropylsulfonylamino)methylphenyl]-N2-[3,5-dimethyl-4-ethoxyphenyl]-2,4-pyrimidinediamine] here?
A: Its IC50 is 0.0394 µM.

Q: Which IC50 does the source give for `CC(C)(C)Oc1ccc(Nc2ncc(Cl)c(Nc3ccc(CCNS(=O)(=O)C4CC4)cc3)n2)cc1` [II-47, 5-Chloro-N4[4-(N-cyclopropylsulfonylamino)ethylphenyl]-N2-[4-(2,6-dimethyl-ethoxy)phenyl]-2,4-pyrimidinediamine] here?
A: The IC50 was 0.487 µM.

Q: For `COc1cc(Nc2ncc(F)c(Nc3ccc(CNS(=O)(=O)C4CC4)cc3)n2)cc(Cl)c1OC` [II-196, 5-Fluoro-N4-[4-(N-cyclopropylsulfonylamino)methylphenyl]-N2-[3,4-dimethoxy-5-chlorophenyl]-2,4-pyrimidinediamine], which IC50 is on record?
A: Its IC50 is 0.597 µM.

Q: How did the IC50 turn out when “5-Chloro-N2-[3,4-dimethyl-4-(2-(4-morpholinyl)ethoxy)phenyl]-N4-[4-((N-cyclopropylamino)sulfonylamino)methylphenyl]-2,4-pyrimidinediamine [II-170]” was run?
A: Its IC50 is 0.0402 µM.

Q: Which IC50 does the source give for `CCNS(=O)(=O)NCc1ccc(Nc2nc(Nc3ccc(C4CCN(C)CC4)cc3)ncc2C)cc1` [II-124, N4-[(4-(Ethylamino)sulfonylamino)methylphenyl]-5-methyl-N2-[4-(1-methyl-4-piperidinyl)pheny]-2,4-pyrimidinediamine] here?
A: Its IC50 is 1.16 µM.

Q: `CN1CCN(c2ccc(Nc3ncc(C(F)(F)F)c(Nc4ccc(CNS(=O)(=O)C5CC5)cc4)n3)cc2)CC1` [II-127, N4-[4-(N-Cyclopropylsulfonylamino)methylphenyl]-N2-[4-(4-methyl-1-piperazinyl)phenyl]-5-trifluoromethyl-2,4-pyrimidinediamine] was tested. Which IC50 did it give?
A: Its IC50 is 0.338 µM.

Q: With `COc1c(C)cc(Nc2ncc(Cl)c(Nc3ccc(CNS(=O)(=O)NC4CC4)cc3C)n2)cc1C` [II-175, 5-Chloro-N2-(3,5-dimethyl-4-methoxyphenyl)-N4-[2-methyl-4-((N-cyclopropylamino)sulfonylamino)methylphenyl]-2,4-pyrimidinediamine] as the compound, how does the IC50 read?
A: The IC50 was 0.354 µM.

Q: Which IC50 does the source give for `COc1cc(Nc2ncc(C)c(Nc3ccc4c(c3)[C@H](NS(C)(=O)=O)CC4)n2)cc(OC)c1OC` [V-9] here?
A: The IC50 was 2.2 µM.

Q: For `COc1c(Cl)cc(Nc2ncc(C)c(Nc3ccc(CNS(=O)(=O)N(C)C)cc3)n2)cc1Cl` [II-102, 5-methyl-N2-[3,5-dichloro-4-methoxyphenyl]-N4-[(4-(dimethylamino)sulfonylamino)methylphenyl]-2,4-pyrimidinediamine], which IC50 is on record?
A: Its IC50 is 1.17 µM.
